Eight compounds from ChEMBL document CHEMBL1201862, “PubChem BioAssay data set” (2004) can be followed below.

Among the test systems are U-251; UO-31; HOP-62; EKVX; NCI-H226; CAKI-1; OVCAR-8; M19-MEL; KM12; LXFL 529; OVCAR-5; CCRF-CEM; KM-20L2; OVCAR-3; SNB-78; RXF 393; SK-MEL-2; SNB-75; SN12C; TK-10.
What all share (experiment): NCI tumour cell line growth inhibition, 48 h

SMILES strings stand for the structures.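 Exposure lasted 48 hours, with cells grown in 96-well plates and compounds tested at five concentrations. Abbreviation: GI50, concentration required for 50% inhibition of growth.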 Active and inactive are the calls of the source. Rule as the data show it: active = GI50 up to about 1.1 µM and inactive = higher.

For the compound `C/C(=N\NC(=[Se])N(C)C)c1ccccn1`, the GI50 is < 0.01 µM (active) in the test on U-251; 0.457 µM (active) with UO-31; < 0.01 µM (active) in the test with HOP-62; 0.0703 µM (active) in the test on EKVX; 0.0973 µM (active) with NCI-H226; 0.188 µM (active) in the test with CAKI-1. In addition, the GI50 was < 0.01 µM (active) in the test on OVCAR-8; 0.339 µM (active) in the test with M19-MEL; 0.0234 µM (active) with KM12; < 0.01 µM (active) in the test on LXFL 529; 0.103 µM (active) in the test on OVCAR-5; < 0.01 µM (active) in the test with CCRF-CEM. Besides, the GI50 in the test with KM-20L2 is < 0.01 µM (active); with OVCAR-3, 0.106 µM (active); with SNB-78, 2.97 µM (inactive); in the test with RXF 393, 0.455 µM (active); with SK-MEL-2, 0.585 µM (active); in the test with SNB-75 it was 0.462 µM (active). In addition, the GI50 in the test on SN12C was 0.0143 µM (active); in the test on TK-10, 1.87 µM (inactive).

Turning to `CC(=O)NC(CCCN(Cc1ccccc1)C(=O)N(C)N=O)C(=O)NCc1ccccc1` (stereo unspecified), the GI50 with U-251, in the test on UO-31, in the test on HOP-62, with EKVX, in the test with NCI-H226 and in the test with CAKI-1 was > 100 µM (inactive) in each case. Further, the GI50 in the test on OVCAR-8, in the test with M19-MEL, with KM12, in the test on LXFL 529, in the test on OVCAR-5 and with CCRF-CEM was > 100 µM (inactive) each time. Further, the GI50 was > 100 µM (inactive) in the test on KM-20L2; > 100 µM (inactive) with OVCAR-3; > 100 µM (inactive) in the test on SNB-78; > 100 µM (inactive) with RXF 393; > 100 µM (inactive) in the test on SK-MEL-2; 27.4 µM (inactive) in the test with SNB-75. For the same compound, the GI50 with SN12C and in the test with TK-10 was > 100 µM (inactive) each time.

Consider `COC(=O)C(=O)C(CC(=O)Nc1cccc(C(F)(F)F)c1)C(=O)OC` (stereo unspecified), for which the GI50 with U-251, with UO-31, in the test with HOP-62, in the test with EKVX, in the test on NCI-H226 and in the test with CAKI-1 was > 100 µM (inactive) in each case. Further, the GI50 in the test with OVCAR-8, in the test with M19-MEL, in the test on LXFL 529, in the test with OVCAR-5, with CCRF-CEM and in the test on KM-20L2 was > 100 µM (inactive) each time. Also, the GI50 in the test on SNB-78, in the test on RXF 393, in the test with SK-MEL-2, in the test on SNB-75, in the test with SN12C and in the test on TK-10 was > 100 µM (inactive) throughout.

On to `O=C(Cc1nc2ccccc2o1)C(=O)Nc1ccccc1C(F)(F)F`, for which the GI50 in the test with U-251, with UO-31, in the test on HOP-62, with EKVX, in the test on NCI-H226 and with CAKI-1 was > 100 µM (inactive) in each case. Besides, the GI50 with OVCAR-8, with M19-MEL, with KM12, in the test with LXFL 529, in the test with OVCAR-5 and in the test on CCRF-CEM was > 100 µM (inactive) in each case. Further, the GI50 in the test on KM-20L2 is > 100 µM (inactive); in the test on OVCAR-3 it was > 100 µM (inactive); in the test with SNB-78 it was > 100 µM (inactive); in the test with RXF 393, > 100 µM (inactive); with SK-MEL-2 it was > 100 µM (inactive); in the test on SNB-75, 63.1 µM (inactive). Moreover, the GI50 in the test with SN12C and in the test with TK-10 was > 100 µM (inactive) throughout.

Regarding `CC(=O)Oc1c(C)n(CCCl)ccc1=O`, the GI50 in the test on U-251 is > 100 µM (inactive); with UO-31, 59.2 µM (inactive); with HOP-62 it was > 100 µM (inactive); in the test on EKVX, > 100 µM (inactive); with NCI-H226, > 100 µM (inactive); with CAKI-1 it was > 100 µM (inactive). Also, the GI50 with OVCAR-8 was > 100 µM (inactive); in the test on M19-MEL it was > 100 µM (inactive); with KM12 it was > 100 µM (inactive); in the test with LXFL 529 it was > 100 µM (inactive); in the test with OVCAR-5, 56.6 µM (inactive); in the test with CCRF-CEM, 84.3 µM (inactive). The GI50 was 57.7 µM (inactive) in the test on KM-20L2; > 100 µM (inactive) in the test on OVCAR-3; > 100 µM (inactive) with SNB-78; > 100 µM (inactive) in the test with RXF 393; > 100 µM (inactive) in the test with SK-MEL-2; > 100 µM (inactive) in the test on SNB-75. The GI50 in the test with SN12C is > 100 µM (inactive); with TK-10, 22.5 µM (inactive).

`COc1ccc2ccc([Se]c3ccc4ccc(OC)cc4c3)cc2c1`: the GI50 in the test with U-251 is 29.9 µM (inactive); in the test with UO-31 it was 23.7 µM (inactive); in the test with HOP-62, > 100 µM (inactive); in the test on NCI-H226, 63.1 µM (inactive); with CAKI-1 it was 38.7 µM (inactive); in the test with OVCAR-8, 21.8 µM (inactive). For the same compound, the GI50 is > 100 µM (inactive) with M19-MEL; 51.9 µM (inactive) in the test on KM12; > 100 µM (inactive) in the test with LXFL 529; 49.8 µM (inactive) in the test with CCRF-CEM; > 100 µM (inactive) in the test on KM-20L2; > 100 µM (inactive) with OVCAR-3. For the same compound, the GI50 in the test with SNB-78 is 53.6 µM (inactive); with RXF 393, 70 µM (inactive); in the test with SK-MEL-2, > 100 µM (inactive); in the test with SNB-75 it was 26.6 µM (inactive); in the test with SN12C it was 90.6 µM (inactive); with TK-10, > 100 µM (inactive).

On to `O=C(/C=C/c1ccccc1)CCN1CCOCC1`, for which the GI50 was 12.9 µM (inactive) in the test with U-251; 16.6 µM (inactive) in the test with UO-31; 27.3 µM (inactive) with HOP-62; 18.5 µM (inactive) in the test with EKVX; 20.8 µM (inactive) in the test with NCI-H226; 8.39 µM (inactive) in the test on CAKI-1. Further, the GI50 was 15.1 µM (inactive) with OVCAR-8; 14.6 µM (inactive) in the test with M19-MEL; 7.52 µM (inactive) in the test on KM12; 2.78 µM (inactive) in the test on LXFL 529; 15.7 µM (inactive) with OVCAR-5; 1.82 µM (inactive) in the test with CCRF-CEM. For the same compound, the GI50 was 15.9 µM (inactive) in the test on KM-20L2; 14.3 µM (inactive) with OVCAR-3; 19 µM (inactive) in the test on SNB-78; 12.7 µM (inactive) with RXF 393; 21.1 µM (inactive) with SK-MEL-2; 23.4 µM (inactive) with SNB-75. For the same compound, the GI50 with SN12C was 14.8 µM (inactive); with TK-10 it was 13.7 µM (inactive).

Consider `CC(=O)[C@@]1(O)CC[C@H]2[C@@H]3C[C@H](C)C4=CC(=O)C=C[C@]4(C)[C@@]3(F)[C@@H](O)C[C@@]21C` [FLUOROMETHOLONE], for which the GI50 with U-251 is > 100 µM (inactive); with UO-31, > 100 µM (inactive); in the test on HOP-62, > 100 µM (inactive); in the test on EKVX, > 67.5 µM (inactive); in the test on NCI-H226 it was > 11.3 µM (inactive); in the test on CAKI-1 it was > 100 µM (inactive). Moreover, the GI50 in the test on OVCAR-8 is > 69.7 µM (inactive); with M19-MEL, > 100 µM (inactive); with KM12, > 100 µM (inactive); in the test on LXFL 529 it was > 100 µM (inactive); in the test with OVCAR-5, > 38.5 µM (inactive); in the test on CCRF-CEM, 1.8 µM (inactive). Also, the GI50 in the test on KM-20L2 was > 100 µM (inactive); with OVCAR-3 it was > 100 µM (inactive); in the test with SNB-78, > 100 µM (inactive); with RXF 393, > 91.4 µM (inactive); in the test with SK-MEL-2, > 100 µM (inactive); in the test on SNB-75, 69.5 µM (inactive). The GI50 in the test with SN12C and in the test on TK-10 was > 100 µM (inactive) throughout.
